# Data reported in ChEMBL document CHEMBL1649500, “GS-9191 is a novel topical prodrug of the nucleotide analog 9-(2-phosphonylmethoxyethyl)guanine with antiproliferative activity and possible utility in the treatment of human papillomavirus lesions” (Antimicrob Agents Chemother, 2009).
# pEC50: −log10 of the molar value. The source made the active and inactive calls. No cut-off for these calls is given here.
# Experiments:
# [1] = system: SiHa; experiment: Inhibition of DNA synthesis in HPV-transformed human SiHa cells assessed as decrease in BrdU incorporation after 72 to 75 hrs by ELISA; assay type: functional, cell-based
# [2] = system: Cottontail rabbit papillomavirus; experiment: Antiviral activity against Cottontail rabbit papillomavirus infected in New Zealand White rabbit assessed as decrease in pailloma size at 0.01% administered topically measured on day 48; assay type: functional, Kappapapillomavirus 2
# [3] = system: Ca-Ski; experiment: Induction of apoptosis in HPV-transformed human CaSki cells at 2.7 to 270 nM after 3 to 7 days by propidium iodide staining-based flow cytometry; assay type: functional, cell-based
# [4] = Cell cycle arrest in human PHK cells assessed as accumulation at S phase at 10 times EC50 after 48 hrs by flow cytometry; assay type: cell-based
# [5] = system: ME-180; experiment: Antiproliferative activity against HPV-transformed human ME180 cells after 7 days by SRB assay; assay type: functional, cell-based; details: ME-180, 168 h
# [6] = Antiproliferative activity against human PHK after 7 days by SRB assay
# [7] = system: SiHa; experiment: Cell cycle arrest in HPV-transformed human SiHa cells assessed as accumulation at G2/M phase at 10 times EC50 after 48 hrs by flow cytometry; assay type: functional
# [8] = system: SiHa; experiment: Inhibition of DNA synthesis in HPV-transformed human SiHa cells assessed as decrease in BrdU incorporation after 6 to 9 hrs by ELISA; assay type: functional, cell-based
# [9] = Antiproliferative activity against HPV-transformed human C4I cells after 7 days by SRB assay; assay type: functional, cell-based; details: C-4I, 168 h
# [10] = system: SiHa; experiment: Induction of apoptosis in HPV-transformed human SiHa cells assessed as apoptotic cells at 27 nM after 3 days by propidium iodide staining-based flow cytometry; assay type: functional
# [11] = system: SiHa; experiment: Induction of apoptosis in HPV-transformed human SiHa cells assessed as apoptotic cells at 27 nM after 7 days by propidium iodide staining-based flow cytometry; assay type: functional
# [12] = system: SiHa; experiment: Antiproliferative activity against HPV-transformed human SiHa cells after 7 days by SRB assay; assay type: functional, cell-based; details: 168 h
# [13] = Antiproliferative activity against human lung fibroblast after 7 days by SRB assay; details: 168 h
# [14] = system: Ca-Ski; experiment: Cell cycle arrest in HPV-transformed human CaSki cells assessed as accumulation at S phase at 10 times EC50 after 48 hrs by flow cytometry; assay type: functional, cell-based
# [15] = system: HeLa; experiment: Induction of apoptosis in HPV-transformed human HeLa cells at 2.7 to 270 nM after 3 to 7 days by propidium iodide staining-based flow cytometry; assay type: functional, cell-based
# [16] = system: SiHa; experiment: Inhibition of DNA synthesis in HPV-transformed human SiHa cells assessed as decrease in BrdU incorporation after 3 hrs by ELISA; assay type: functional, cell-based
# [17] = system: SiHa; experiment: Induction of apoptosis in HPV-transformed human SiHa cells assessed as viable cells at 2.7 nM after 3 days by propidium iodide staining-based flow cytometry; assay type: functional; details: 72 h, read-out: Activity
# [18] = system: Cottontail rabbit papillomavirus; experiment: Antiviral activity against Cottontail rabbit papillomavirus infected in New Zealand White rabbit assessed as decrease in pailloma size at 0.1% administered topically measured on day 48; assay type: functional, Kappapapillomavirus 2
# [19] = system: SiHa; experiment: Inhibition of DNA synthesis in HPV-transformed human SiHa cells assessed as decrease in BrdU incorporation after 24 to 27 hrs by ELISA; assay type: functional, cell-based
# [20] = system: Cottontail rabbit papillomavirus; experiment: Antiviral activity against Cottontail rabbit papillomavirus infected in New Zealand White rabbit assessed as decrease in pailloma size at 0.3% administered topically measured on day 48; assay type: functional, Kappapapillomavirus 2
# [21] = system: HeLa; experiment: Antiproliferative activity against HPV-transformed human HeLa cells after 7 days by SRB assay; assay type: functional, cell-based; details: 168 h
# [22] = system: SiHa; experiment: Induction of apoptosis in HPV-transformed human SiHa cells assessed as viable cells at 2.7 nM after 7 days by propidium iodide staining-based flow cytometry; assay type: functional; details: 168 h, read-out: Activity
# [23] = system: SiHa; experiment: Induction of apoptosis in HPV-transformed human SiHa cells assessed as viable cells at 27 nM after 7 days by propidium iodide staining-based flow cytometry; assay type: functional; details: 168 h, read-out: Activity
# [24] = system: SiHa; experiment: Drug metabolism in human SiHa cells assessed as PMEG AUC (0 to 32 hrs) at 1 uM by HPLC analysis; assay type: ADME, cell-based; set-up: dose 1 uM, time < 32 hr
# [25] = system: SiHa; experiment: Cell cycle arrest in HPV-transformed human SiHa cells assessed as accumulation at G0/G1 phase at 10 times EC50 after 48 hrs by flow cytometry; assay type: functional
# [26] = system: HT-3; experiment: Antiproliferative activity against HPV-non-transformed human HT3 cells after 7 days by SRB assay; assay type: functional, cell-based; details: HT-3, 168 h
# [27] = system: SiHa; experiment: Cell cycle arrest in HPV-transformed human SiHa cells assessed as accumulation at S phase at 10 times EC50 after 48 hrs by flow cytometry; assay type: functional
# [28] = system: Ca-Ski; experiment: Antiproliferative activity against HPV-transformed human CaSki cells after 7 days by SRB assay; assay type: functional, cell-based; details: 168 h
# [29] = Antiproliferative activity against HPV-transformed human MS751 cells after 7 days by SRB assay; assay type: functional, cell-based; details: MS751, 168 h
# [30] = system: SiHa; experiment: Induction of apoptosis in HPV-transformed human SiHa cells assessed as apoptotic cells at 270 nM after 7 days by propidium iodide staining-based flow cytometry; assay type: functional
# [31] = Antiproliferative activity against PHF after 7 days by SRB assay; set-up: species or system Homo sapiens
# [32] = system: A-431; experiment: Cell cycle arrest in human A431 cells assessed as accumulation at S phase at 10 times EC50 after 48 hrs by flow cytometry; assay type: functional, cell-based
# [33] = Drug metabolism in human CaSki cells assessed as PMEG AUC (0 to 32 hrs) at 1 uM by HPLC analysis; assay type: ADME, cell-based; set-up: time < 32 hr, dose 1 uM; details: ca-ski
# [34] = system: SiHa; experiment: Induction of apoptosis in HPV-transformed human SiHa cells assessed as apoptotic cells at 270 nM after 3 days by propidium iodide staining-based flow cytometry; assay type: functional
# [35] = system: SiHa; experiment: Inhibition of DNA synthesis in HPV-transformed human SiHa cells assessed as decrease in BrdU incorporation after 48 to 51 hrs by ELISA; assay type: functional, cell-based
# [36] = Cell cycle arrest in human PHK cells assessed as accumulation at G2/M phase at 10 times EC50 after 48 hrs by flow cytometry; assay type: cell-based
# [37] = Antiproliferative activity against NHBE cells after 7 days by SRB assay; assay type: cell-based; details: Homo sapiens, 168 h
# [38] = Cell cycle arrest in human PHK cells assessed as accumulation at G0/G1 phase at 10 times EC50 after 48 hrs by flow cytometry; assay type: cell-based
# [39] = Drug metabolism in human lung fibroblast assessed as cPrPMEDAP AUC (0 to 32 hrs) at 1 uM by HPLC analysis; assay type: ADME; set-up: dose 1 uM, time < 32 hr
# [40] = system: SiHa; experiment: Induction of apoptosis in HPV-transformed human SiHa cells assessed as apoptotic cells at 2.7 nM after 3 days by propidium iodide staining-based flow cytometry; assay type: functional
# [41] = system: SCC-4; experiment: Antiproliferative activity against HPV-non-transformed human SCC4 cells after 7 days by SRB assay; assay type: functional, cell-based; details: SCC-4, 168 h
# [42] = system: SiHa; experiment: Induction of apoptosis in HPV-transformed human SiHa cells assessed as viable cells at 270 nM after 7 days by propidium iodide staining-based flow cytometry; assay type: functional; details: 168 h, read-out: Activity
# [43] = system: SiHa; experiment: Induction of apoptosis in HPV-transformed human SiHa cells assessed as viable cells at 270 nM after 3 days by propidium iodide staining-based flow cytometry; assay type: functional; details: 72 h, read-out: Activity
# [44] = system: SCC-9; experiment: Antiproliferative activity against HPV-non-transformed human SCC9 cells after 7 days by SRB assay; assay type: functional, cell-based; details: SCC-9, 168 h
# [45] = system: Cottontail rabbit papillomavirus; experiment: Antiviral activity against Cottontail rabbit papillomavirus infected in New Zealand White rabbit assessed as effect on viral growth rate at 0.5% administered topically measured on day 48; assay type: functional; details: Kappapapillomavirus 2
# [46] = system: SiHa; experiment: Inhibition of DNA synthesis in HPV-transformed human SiHa cells assessed as decrease in BrdU incorporation after 3 to 6 hrs by ELISA; assay type: functional, cell-based
# [47] = system: SiHa; experiment: Induction of apoptosis in HPV-transformed human SiHa cells assessed as viable cells at 27 nM after 3 days by propidium iodide staining-based flow cytometry; assay type: functional; details: 72 h, read-out: Activity
# [48] = Drug metabolism in human CK cells assessed as PMEG AUC (0 to 32 hrs) at 1 uM by HPLC analysis; assay type: ADME, cell-based; set-up: time < 32 hr, dose 1 uM
# [49] = system: SiHa; experiment: Induction of apoptosis in HPV-transformed human SiHa cells assessed as apoptotic cells at 2.7 nM after 7 days by propidium iodide staining-based flow cytometry; assay type: functional
# [50] = Antiproliferative activity against human CK after 7 days by SRB assay
compound,measurement,setting,value
CC(C)COC(=O)[C@H](Cc1ccccc1)NP(=O)(COCCn1cnc2c(NC3CC3)nc(N)nc21)N[C@@H](Cc1ccccc1)C(=O)OCC(C)C [GS-9191],pEC50,[1],7.94
same,inhibition (INH),[2],53%
same,Activity,[3],Active
same,Activity,[4],36.1%
same,pEC50,[5],8.74
same,pEC50,[6],8.54
same,Activity,[7],7.3%
same,pEC50,[8],9.00
same,pEC50,[9],9.36
same,Activity,[10],14.6%
same,Activity,[11],82.2%
same,pEC50,[12],10.52
same,pEC50,[13],8.13
same,Activity,[14],Active
same,Activity,[15],Active
same,pEC50,[16],< 7.13
same,viability at 0.0027 µM,[17],95.2%
same,inhibition (INH),[18],70%
same,pEC50,[19],8.74
same,inhibition (INH),[20],70%
same,pEC50,[21],9.15
same,viability at 0.0027 µM,[22],65.5%
same,viability at 0.027 µM,[23],17.4%
same,AUC,[24],1960 µM·h
same,Activity,[25],27.1%
same,pEC50,[26],8.27
same,Activity,[27],65.6%
same,pEC50,[28],8.69
same,pEC50,[29],10.40
same,Activity,[30],84.1%
same,pEC50,[31],8.32
same,Activity,[32],Active
same,AUC,[33],170 µM·h
same,Activity,[34],19.6%
same,pEC50,[35],8.10
same,Activity,[36],7.5%
same,pEC50,[37],9.01
same,Activity,[38],56.4%
same,AUC,[39],835 µM·h
same,Activity,[40],3.4%
same,pEC50,[41],8.30
same,viability at 0.27 µM,[42],15.5%
same,viability at 0.27 µM,[43],79.6%
same,pEC50,[44],7.82
same,Activity,[45],inactive
same,pEC50,[46],8.11
same,viability at 0.027 µM,[47],83.7%
same,AUC,[48],33.4 µM·h
same,Activity,[49],33.1%
same,pEC50,[50],8.68
